Test results from publication PMC4072508, “Genome-Wide Prediction and Validation of Peptides That Bind Human Prosurvival Bcl-2 Proteins” (PLoS Computational Biology, 2014).
“And” between values parts separate entries of the source, which are not always exact repeats. Equal entries are not always repeated. Where two headings read alike, the source gives them in different places. Residues, ends and D or L forms follow the SMILES beside them. No end group written: not given here.

Key:
Assay in all cases: Fluorescence polarization direct binding
Bcl-2 = molecular target: T1, Bcl-2 (Homo sapiens, UniProt P10415, DEL53-91)
T1 construct: myc- Bcl-2 FP; made in house
Description: (§1) Peptides were purified by reverse-phase HPLC using a C18 column and a linear water/acetonitrile gradient. We re-analyzed the purified peptide by mass spectrometry if there was not a single well-defined peak in HPLC chromatogram.
(§2) Fluorescence polarization (FP) assays were done at 25°C in assay buffer (20 mM NaPO4, 50 mM NaCl, 1 mM EDTA, 0.001% Triton X (v/v), pH 7.8). […] For all FP experiments, the total well volume was 120 µl. […] Anisotropy was measured using a Spectramax M5 plate reader from Molecular Devices.
(§3) Direct binding curves were fit using Pylab/Scipy/Optimize to a single-site binding model utilized previously.
(§4) ^1Best-fit KD values determined by combining all replicate titration curves and fitting to a direct binding model (see Methods). […] Values with an X followed by a number indicate the highest concentration (the number, in nM) for which signal was measured yet no binding was detected.

Bcl-w = molecular target: T2, Bcl-w (Homo sapiens, UniProt Q92843, Q133R)
T2 construct: myc-Bcl-w SPOT array & FP; made in house
T2 sequence (Q92843 with tags, fused parts or gaps Q133R): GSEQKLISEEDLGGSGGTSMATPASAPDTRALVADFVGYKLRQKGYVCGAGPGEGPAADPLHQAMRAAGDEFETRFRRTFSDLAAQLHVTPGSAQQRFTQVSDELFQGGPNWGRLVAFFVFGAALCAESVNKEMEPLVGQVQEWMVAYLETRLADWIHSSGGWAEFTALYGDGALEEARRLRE
Description: as §1, §2, §3, §4

Bcl-xL = molecular target: T3, Bcl-xL (Homo sapiens, UniProt Q07817)
T3 construct: myc-Bcl-xL SPOT array & FP; made in house
Description: as §1, §2, §3, §4

Bfl-1 = molecular target: T4, Bfl-1 (Homo sapiens, UniProt Q16548)
T4 construct: myc- Bfl-1 SPOT array & FP; made in house
T4 sequence (Q16548 with tags, fused parts or gaps): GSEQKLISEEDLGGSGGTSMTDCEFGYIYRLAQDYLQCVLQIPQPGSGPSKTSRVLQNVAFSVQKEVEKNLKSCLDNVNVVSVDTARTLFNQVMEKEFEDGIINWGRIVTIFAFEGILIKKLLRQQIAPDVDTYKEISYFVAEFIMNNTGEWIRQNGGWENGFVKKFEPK
Description: as §1, §2, §3, §4

Mcl-1 = molecular target: T5, Mcl-1 (Homo sapiens, UniProt Q07820)
T5 construct: myc-Mcl-1 SPOT array & FP; made in house
Description: as §1, §2, §3, §4

[1] = FP direct binding, 10 nM FAM-labeled peptide, receptor titrated, 25°C, pH 7.8, fit of all replicate titrations, X+number in a cell = highest concentration (nM) measured with no binding detected, given here as >, SPNS1 fit to raw fluorescence, read-out: Best-fit KD, Bcl-2
[2] = FP direct binding, 10 nM FAM-labeled peptide, receptor titrated, 25°C, pH 7.8, fit of all replicate titrations, X+number in a cell = highest concentration (nM) measured with no binding detected, given here as >, SPNS1 fit to raw fluorescence, read-out: Best-fit KD, Bcl-w
[3] = FP direct binding, 10 nM FAM-labeled peptide, receptor titrated, 25°C, pH 7.8, fit of all replicate titrations, X+number in a cell = highest concentration (nM) measured with no binding detected, given here as >, SPNS1 fit to raw fluorescence, read-out: Best-fit KD, Bcl-xL
[4] = FP direct binding, 10 nM FAM-labeled peptide, receptor titrated, 25°C, pH 7.8, fit of all replicate titrations, X+number in a cell = highest concentration (nM) measured with no binding detected, given here as >, SPNS1 fit to raw fluorescence, read-out: Best-fit KD, Bfl-1
[5] = Binder class, Mcl-1, benchmark classification of peptides newly characterized in this study
[6] = FP direct binding, 10 nM FAM-labeled peptide, receptor titrated, 25°C, pH 7.8, fit of all replicate titrations, X+number in a cell = highest concentration (nM) measured with no binding detected, given here as >, SPNS1 fit to raw fluorescence
[7] = benchmark classification of peptides newly characterized in this study, read-out: Binder class, Bcl-2
[8] = benchmark classification of peptides newly characterized in this study, read-out: Binder class, Bcl-w
[9] = benchmark classification of peptides newly characterized in this study, read-out: Binder class, Bcl-xL
[10] = benchmark classification of peptides newly characterized in this study, read-out: Binder class, Bfl-1

T1 sequence (P10415 with tags, fused parts or gaps DEL53-91): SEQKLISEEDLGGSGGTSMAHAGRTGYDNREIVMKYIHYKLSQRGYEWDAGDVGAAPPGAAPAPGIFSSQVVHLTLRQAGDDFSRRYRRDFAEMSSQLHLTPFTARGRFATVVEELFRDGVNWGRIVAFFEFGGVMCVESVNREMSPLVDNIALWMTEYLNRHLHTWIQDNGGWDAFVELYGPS
T3 sequence (Q07817 with tags, fused parts or gaps): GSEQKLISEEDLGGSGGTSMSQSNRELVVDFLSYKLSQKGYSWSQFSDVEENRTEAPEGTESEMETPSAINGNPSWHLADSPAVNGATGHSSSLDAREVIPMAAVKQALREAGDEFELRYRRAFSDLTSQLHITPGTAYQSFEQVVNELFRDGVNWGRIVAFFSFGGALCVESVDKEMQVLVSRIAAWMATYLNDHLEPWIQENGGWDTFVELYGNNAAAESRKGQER
T5 sequence (Q07820 with tags, fused parts or gaps): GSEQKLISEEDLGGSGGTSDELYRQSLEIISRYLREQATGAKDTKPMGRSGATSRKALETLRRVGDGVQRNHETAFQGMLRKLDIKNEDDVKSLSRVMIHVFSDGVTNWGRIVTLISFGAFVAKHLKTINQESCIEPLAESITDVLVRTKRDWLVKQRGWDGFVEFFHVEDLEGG

Row | Compound | Kd (Bcl-2; [1]) | Kd (Bcl-w; [2]) | Kd (Bcl-xL; [3]) | Kd (Bfl-1; [4]) | Kd (Mcl-1; [5]) [nM] | Kd (Mcl-1; [6]) | Kd (Bcl-2; [7]) [nM] | Kd (Bcl-w; [8]) [nM] | Kd (Bcl-xL; [9]) [nM] | Kd (Bfl-1; [10]) [nM] | Best-fit KD, Bcl-2 (Bcl-2; [6]) | Best-fit KD, Bcl-w (Bcl-w; [6]) | Best-fit KD, Bcl-xL (Bcl-xL; [6]) | Best-fit KD, Mcl-1 (Mcl-1; [6])
1 | CC(C)C[C@H](NC(=O)CNC(=O)[C@@H](NC(=O)[C@H](CCCCN)NC(=O)[C@H](CCCCN)NC(=O)[C@H](CC(N)=O)NC(=O)[C@H](CCC(=O)O)NC(=O)[C@H](CC(=O)O)NC(=O)[C@@H](N)[C@@H](C)O)C(C)C)C(=O)N[C@@H](C)C(=O)N[C@@H](CC(C)C)C(=O)N[C@@H](CCCCN)C(=O)N[C@@H](CC(=O)O)C(=O)N[C@@H](CC(C)C)C(=O)N[C@@H](C)C(=O)N[C@@H](CCCCN)C(=O)N[C@@H](CCC(N)=O)C(=O)N[C@@H](Cc1ccc(O)cc1)C(=O)N[C@@H](CO)C(=O)N[C@@H](CC(=O)O)C(=O)N[C@@H](CCCNC(=N)N)C(=O)N[C@@H](CC(C)C)C(=O)N[C@@H](CCC(=O)O)C(=O)N[C@@H](CS)C(=O)N[C@@H](CS)C(=O)N[C@@H](CCC(=O)O)C(N)=O [NUB1] (H-TDENKKVGLALKDLAKQYSDRLECCE-NH2) | 562 nM | > 4000 nM | 2720 nM | > 4000 nM | > 10000 | > 10000 nM |  |  |  |  |  |  |  | 
2 | AIRPRAVELRHLADDFINGNKKK-NH2 [MCF2L2] | 60 nM | 1120 nM | 292 nM | > 3370 nM | > 10000 | > 4000 nM | < 1000 | 1000 to 10000 | < 1000 | > 10000 |  |  |  | 
3 | APYYLSRNLKQQADIIFMPYNYL-NH2 [RTEL1] | 342 nM | > 100000 nM | 1380 nM | > 4000 nM | 1000 to 10000 | > 4000 nM | 1000 to 10000 | 1000 to 10000 | 1000 to 10000 | > 10000 |  |  |  | 
4 | ATKRETAATFLKKVAKEFGFQNNGFS-NH2 [NPLOC4] | 2060 nM | > 4500 nM | > 100000 nM | > 4670 nM | 1000 to 10000 | > 4000 nM | > 10000 | > 10000 | > 10000 | > 10000 |  |  |  | 
5 | ATRRLSGFLRTLADRLEGTKELL-NH2 [MINA] | 266 nM | 1230 nM | 1010 nM | 1130 nM | > 10000 | > 10000 nM | < 1000 | 1000 to 10000 | 1000 to 10000 | 1000 to 10000 |  |  |  | 
6 | AWGKFGGAFARYADEMKEIQERQ-NH2 [PURB] | 34 nM | > 1800 nM | > 100000 nM | > 4670 nM | > 10000 | > 4000 nM | < 1000 | > 10000 | > 10000 | > 10000 |  |  |  | 
7 | ELQELARKLQELADASENLLTEN-NH2 [TXNDC11] | 86 nM | 249 nM | 1490 nM | > 10000 nM | 1000 to 10000 | 2380 nM | < 1000 | < 1000 | 1000 to 10000 | > 10000 |  |  |  | 
8 | EVLAGPLAQRLSHIAEDVGRLVKKSR-NH2 [ARHGAP4] | 6090 nM | 749 nM | 3060 nM | > 5590 nM | < 1000 | > 2430 nM | 1000 to 10000 | 1000 to 10000 | 1000 to 10000 | > 10000 |  |  |  | 
9 | FTGNNTAVQELKRVSEQFTATFRRKA-NH2 [TUBB4Q] | 1410 nM | 2490 nM | 2050 nM | > 4670 nM | < 1000 | 1460 nM | 1000 to 10000 | 1000 to 10000 | 1000 to 10000 | > 10000 |  |  |  | 
10 | GDSVLARMLRELGDSLRRPQLRL-NH2 [SLC19A1] | 237 nM | 18 nM | 1460 nM | 182 nM | < 1000 | 22 nM | < 1000 | < 1000 | 1000 to 10000 | < 1000 |  |  |  | 
11 | GSGAWGLLLRRVGDDVLVHLLAR-NH2 [TERT] | 49 nM | 992 nM |  | 99 nM | < 1000 | 69 nM | < 1000 | < 1000 | 1000 to 10000 | < 1000 |  |  |  | 
12 | IIHKLAMQLRHIGDNIDHRMVRE-NH2 [PXT1] | < 30 nM and 14 nM | < 30 nM and 5 nM | < 30 nM and 8 nM | < 30 nM and 1 nM | < 1000 | < 30 nM and 0.9 nM | < 1000 | < 1000 | < 1000 | < 1000 |  |  |  | 
13 | KKMTLSEIYRWIADNFPYYKNAG-NH2 [FOXJ2] | 130 nM | 85 nM | 103 nM | > 3370 nM | > 10000 | > 10000 nM | < 1000 | < 1000 | < 1000 | > 10000 | bound tightly | bound tightly | bound tightly | 
14 | KREKLVEILRNIGDERTMVFVET-NH2 [DDX4] | > 3050 nM | > 4350 nM | > 4000 nM | > 3370 nM | < 1000 | 142 nM | < 1000 | 1000 to 10000 | > 10000 | > 10000 |  |  |  | bound tightly
15 | LMARPAVALHFQSIADGFKEAVRYVL-NH2 [SOS2] | 3290 nM | 5380 nM | > 6900 nM | > 3290 nM | > 10000 | > 4000 nM | 1000 to 10000 | 1000 to 10000 | > 10000 | > 10000 |  |  |  | 
